Source: PubChem BioAssay AID248 (DTP/NCI, 2004)
“And” between values parts separate entries of the source, which are not always exact repeats. Equal entries are not always repeated. Toxic doses and inconclusive results are not listed. Rule as the data show it: active = T/C of 150% or more; inactive = T/C below 125%.

System: L1210 leukemia ip in BDF1 mice, survival T/C
Assay: NCI In Vivo Anticancer Drug Screen. Data for tumor model L1210 Leukemia (intraperitoneal) in B6D2F1 (BDF1) mice
Conditions: endpoint: mean survival time, higher = longer survival
Summary of the method: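 Survival endpoint. Drug-treated group vs vehicle group, expressed as T divided by C. Tumor passaged by transplantation.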

[1] = dose: 100.0 mg/kg/injection, schedule: Q01DX009 (ip), vehicle: saline with Tween-80
[2] = dose: 100.0 mg/kg/injection, schedule: Q01DX009 (ip), vehicle: other
[3] = dose: 200.0 mg/kg/injection, schedule: Q01DX009 (ip), vehicle: other
[4] = dose: 100.0 mg/kg/injection, schedule: Q04DX002 (ip), vehicle: saline with Tween-80
[5] = dose: 100.0 mg/kg/injection, schedule: Q01DX009 (ip), vehicle: saline
[6] = dose: 100.0 mg/kg/injection, schedule: Q04DX003 (ip), vehicle: saline
[7] = dose: 200.0 mg/kg/injection, schedule: Q01DX009 (ip), vehicle: saline
[8] = dose: 200.0 mg/kg/injection, schedule: Q04DX003 (ip), vehicle: saline
[9] = dose: 400.0 mg/kg/injection, schedule: Q01DX009 (ip), vehicle: saline
[10] = dose: 400.0 mg/kg/injection, schedule: Q04DX003 (ip), vehicle: saline
[11] = dose: 100.0 mg/kg/injection, schedule: Q04DX003 (ip), vehicle: Klucel (hydroxypropylcellulose) (HPC)
[12] = dose: 200.0 mg/kg/injection, schedule: Q04DX003 (ip), vehicle: Klucel (hydroxypropylcellulose) (HPC)
[13] = dose: 400.0 mg/kg/injection, schedule: Q04DX003 (ip), vehicle: Klucel (hydroxypropylcellulose) (HPC)
[14] = dose: 100.0 mg/kg/injection, schedule: Q01DX001 (ip), vehicle: saline
[15] = dose: 200.0 mg/kg/injection, schedule: Q01DX001 (ip), vehicle: saline
[16] = dose: 400.0 mg/kg/injection, schedule: Q01DX001 (ip), vehicle: saline
[17] = dose: 200.0 mg/kg/injection, schedule: Q01DX009 (ip), vehicle: saline with Tween-80
[18] = dose: 100.0 mg/kg/injection, schedule: Q01DX009 (ip), vehicle: Klucel (hydroxypropylcellulose) (HPC)
[19] = dose: 200.0 mg/kg/injection, schedule: Q01DX009 (ip), vehicle: Klucel (hydroxypropylcellulose) (HPC)

Measured: T/C

O=C(CNC(=O)c1ccc(Cl)cc1Cl)N/N=C/c1ccc(Cl)c(Cl)c1
inactive: dose: 25.0 mg/kg/injection, schedule: Q01DX009 (ip), vehicle: saline with Tween-80 95 % of control | dose: 50.0 mg/kg/injection, schedule: Q01DX009 (ip), vehicle: saline with Tween-80 91 % of control | [1] 88 % of control

COC(/C=N/O)c1ccccc1 (stereo not drawn)
inactive: dose: 50.0 mg/kg/injection, schedule: Q01DX009 (ip), vehicle: other 88 % of control | [2] 88 % of control | [3] 101 % of control

Cc1ccccc1NC(=S)NCCC(=O)O
inactive: [4] 105 % of control | dose: 200.0 mg/kg/injection, schedule: Q04DX002 (ip), vehicle: saline with Tween-80 97 % of control | dose: 400.0 mg/kg/injection, schedule: Q04DX002 (ip), vehicle: saline with Tween-80 97 % of control

CC1(C)CC(=O)c2c(cc3c(c2O)C(=O)CC(C)(C)O3)O1
inactive: [5] 94 % of control | [6] 100 % of control | [7] 94 % of control | [8] 94 % of control | [9] 95 % of control | [10] 106 % of control

O=C(O)C(O)COc1ccc(Cl)cc1Cl (stereo not drawn)
inactive: [5] 92 % of control | [6] 93 % of control | [7] 107 % of control | [9] 102 % of control | [10] 102 % of control

CCCCCCCCCCCCCCCCCCNC(=S)OC
inactive: dose: 100.0 mg/kg/injection, schedule: Q04DX002 (ip), vehicle: Klucel (hydroxypropylcellulose) (HPC) 91 % of control | dose: 200.0 mg/kg/injection, schedule: Q04DX002 (ip), vehicle: Klucel (hydroxypropylcellulose) (HPC) 97 % of control | dose: 400.0 mg/kg/injection, schedule: Q04DX002 (ip), vehicle: Klucel (hydroxypropylcellulose) (HPC) 102 % of control

Cc1c2ccn(CCCCCCCCn3ccc4c(C)c5nc6ccccc6c5c(C)c4c3)cc2c(C)c2c1nc1ccccc12
inactive: dose: 0.78 mg/kg/injection, schedule: Q04DX003 (ip), vehicle: other 98 % of control | dose: 1.56 mg/kg/injection, schedule: Q04DX003 (ip), vehicle: other 104 % of control | dose: 3.13 mg/kg/injection, schedule: Q04DX003 (ip), vehicle: other 104 % of control | dose: 6.25 mg/kg/injection, schedule: Q04DX003 (ip), vehicle: other 112 % of control | dose: 12.5 mg/kg/injection, schedule: Q04DX003 (ip), vehicle: other 118 % of control | dose: 25.0 mg/kg/injection, schedule: Q04DX003 (ip), vehicle: other 115 % of control | dose: 50.0 mg/kg/injection, schedule: Q04DX003 (ip), vehicle: other 98 % of control | dose: 100.0 mg/kg/injection, schedule: Q04DX003 (ip), vehicle: other 109 % of control

CO/C(=N\S(=O)(=O)c1ccccc1)C1CC=CCC1/C(=N\S(=O)(=O)c1ccccc1)OC (stereo not drawn)
inactive: [11] 100 % of control | [12] 94 % of control | [13] 100 % of control

N#CCCCOc1ccc(Cl)cc1
inactive: dose: 25.0 mg/kg/injection, schedule: Q04DX003 (ip), vehicle: Klucel (hydroxypropylcellulose) (HPC) 104 % of control | dose: 50.0 mg/kg/injection, schedule: Q04DX003 (ip), vehicle: Klucel (hydroxypropylcellulose) (HPC) 104 % of control | [11] 98 % of control

Cc1sc2ccccc2[n+]1CCCCS(=O)(=O)O
inactive: [14] 92 % of control | [15] 97 % of control | [16] 97 % of control

O=C(O)C1CCC(CC2CC3CCC2C3)CC1 (stereo not drawn)
inactive: [1] 90 % of control | [17] 96 % of control

c1ccc([P+](c2ccccc2)(c2ccccc2)C2CC2)cc1
inactive: dose: 5.0 mg/kg/injection, schedule: Q01DX001 (ip), vehicle: saline 93 % of control | dose: 10.0 mg/kg/injection, schedule: Q01DX001 (ip), vehicle: saline 101 % of control | dose: 20.0 mg/kg/injection, schedule: Q01DX001 (ip), vehicle: saline 104 % of control | dose: 40.0 mg/kg/injection, schedule: Q01DX001 (ip), vehicle: saline 104 % of control

CCCCCCCC/C=C\CCCCCCCCNP(=O)(OC)OC
inactive: dose: 25.0 mg/kg/injection, schedule: Q04DX002 (ip), vehicle: saline with Tween-80 96 % of control | dose: 50.0 mg/kg/injection, schedule: Q04DX002 (ip), vehicle: saline with Tween-80 92 % of control | [4] 101 % of control and 92 % of control

CCCC1(CC)C(=O)N=C(N)NC1=O (stereo not drawn)
inactive: dose: 25.0 mg/kg/injection, schedule: Q01DX001 (ip), vehicle: Klucel (hydroxypropylcellulose) (HPC) 95 % of control | dose: 50.0 mg/kg/injection, schedule: Q01DX001 (ip), vehicle: Klucel (hydroxypropylcellulose) (HPC) 104 % of control

COc1ccccc1NC(=O)Oc1ccc(-c2ccccc2)cc1Br
inactive: [18] 92 % of control | [11] 97 % of control | [19] 97 % of control | [12] 95 % of control | dose: 400.0 mg/kg/injection, schedule: Q01DX009 (ip), vehicle: Klucel (hydroxypropylcellulose) (HPC) 101 % of control | [13] 93 % of control

C=CS(=O)(=O)c1ccc(N)cc1
inactive: [18] 103 % of control | [19] 95 % of control

COc1ccc2c(c1)CC1(CC2)NCC(=O)NC1=O (stereo not drawn)
inactive: dose: 100.0 mg/kg/injection, schedule: Q01DX001 (ip), vehicle: carboxymethylcellulose (CMC) 97 % of control | dose: 200.0 mg/kg/injection, schedule: Q01DX001 (ip), vehicle: carboxymethylcellulose (CMC) 97 % of control | dose: 400.0 mg/kg/injection, schedule: Q01DX001 (ip), vehicle: carboxymethylcellulose (CMC) 115 % of control

Nc1nc(N)c2[nH]c(CO)nc2n1
inactive: dose: 75.0 mg/kg/injection, schedule: Q01DX001 (ip), vehicle: carboxymethylcellulose (CMC) 110 % of control | dose: 150.0 mg/kg/injection, schedule: Q01DX001 (ip), vehicle: carboxymethylcellulose (CMC) 97 % of control | dose: 300.0 mg/kg/injection, schedule: Q01DX001 (ip), vehicle: carboxymethylcellulose (CMC) 105 % of control

OC(c1ccccc1)(c1ccccc1)C1CCCCC1=C(c1ccccc1)c1ccccc1 (stereo not drawn)
inactive: [14] 88 % of control | [5] 86 % of control | [6] 96 % of control | [15] 93 % of control | [8] 94 % of control | [16] 89 % of control | [9] 86 % of control | [10] 96 % of control

CCc1ccc(NC(=S)NC(=O)c2ccccc2OC)cc1
inactive: [2] 98 % of control | [3] 103 % of control | dose: 400.0 mg/kg/injection, schedule: Q01DX009 (ip), vehicle: other 93 % of control

ON=C(c1ccccn1)c1ccccn1
inactive: dose: 100.0 mg/kg/injection, schedule: Q01DX009 (ip), vehicle: gum acacia 93 % of control | [11] 97 % of control | dose: 200.0 mg/kg/injection, schedule: Q01DX009 (ip), vehicle: gum acacia 88 % of control | [12] 93 % of control | dose: 400.0 mg/kg/injection, schedule: Q01DX009 (ip), vehicle: gum acacia 98 % of control | [13] 95 % of control

O=C(O)/C=C/C(=O)Nc1ccc(NC(=O)/C=C/C(=O)O)cc1
inactive: dose: 100.0 mg/kg/injection, schedule: Q04DX003 (ip), vehicle: saline with Tween-80 98 % of control | dose: 200.0 mg/kg/injection, schedule: Q04DX003 (ip), vehicle: saline with Tween-80 95 % of control | dose: 400.0 mg/kg/injection, schedule: Q04DX003 (ip), vehicle: saline with Tween-80 96 % of control

[N-]=[N+]=C1C=CC=C1C(=O)O
inactive: dose: 12.5 mg/kg/injection, schedule: Q01DX009 (ip), vehicle: Klucel (hydroxypropylcellulose) (HPC) 98 % of control | dose: 25.0 mg/kg/injection, schedule: Q01DX009 (ip), vehicle: Klucel (hydroxypropylcellulose) (HPC) 103 % of control | dose: 50.0 mg/kg/injection, schedule: Q01DX009 (ip), vehicle: Klucel (hydroxypropylcellulose) (HPC) 97 % of control | dose: 100.0 mg/kg/injection, schedule: Q04DX003 (ip), vehicle: acetone 94 % of control | dose: 200.0 mg/kg/injection, schedule: Q04DX003 (ip), vehicle: acetone 93 % of control | dose: 400.0 mg/kg/injection, schedule: Q04DX003 (ip), vehicle: acetone 91 % of control

CC(C)c1ccc(C(=O)O)cc1S(=O)(=O)F
inactive: [1] 95 % of control | [17] 98 % of control
